Results reported in patent US20220132856A1, “PHOTOSENSITIZER AND CHELATING AGENT COMBINATIONS FOR USE AS INSECTICIDES” (SUNCOR ENERGY INC., priority 2019, published 2022).

Legend:
[1] = tested on: Common Poinsettia plants (Euphorbia pulcherrima) cv Prestige Red; test: Phytotoxicity on poinsettia plants (Example 4)
[2] = tested on: potato aphids (Macrosiphum euphorbiae); conditions: for Mean Insects Mortality, % 24 HAT / Mean Insects Mortality, % 48 HAT: LED light exposure 14 h after treatment
Description: Potato aphids (Macrosiphum euphorbiae) were obtained from a colony maintained on Bell pepper (Capsicum annuum L.) plants grown in 1-gal plastic pots containing soil mix for greenhouse use (Sunshine LC1, Sun Gro Horticulture Canada Ltd.). Plants were watered as needed and fertilized twice a week with 20-20-20 water soluble fertilizers. Host plants were not exposed to pesticide treatments.
Pepper leaves infested with aphid nymphs were collected and each leaf was placed in 50 ml vials filled with water. Vials were covered with the lead with a small opening to prevent insects from drowning. Vials with host plant leaf infested with insects were placed in 500 ml transparent plastic containers and covered with transparent leads.
All treatments were applied as a fine spray using a hand-held plastic spray bottle. Each treatment was replicated 4 times. Water treatment was used as a Control.
After 14 h of exposure to LED light or dark insects were kept at a regular 14 h/10 h (light/night) photoperiod. Containers with insects were arranged in a randomized fashion. The experimental rack was placed in the Plant Growth Room at 24-25° C.
The number of live aphids on each leaf (replicate/container) was counted before application of the treatments, as well as 24 h and 48 h after the treatments. The insects were examined using 10× magnifying glass. Aphids were considered dead if no movement was detected after mechanical stimulation with the paintbrush.
Percentage of mortality was calculated by using the numbers of live and dead aphids. Percentage of mortality was rated as zero, when number of insects in the sample increased during the experiment (aphids females gave birth to nymphs).

[3] = tested on: Silverleaf whitefly (Bemesia argentifolii); test: Silverleaf whitefly suppression on sprayed poinsettia (Example 4); format: in vivo; conditions: whitefly nymphs, two sprays 7 days apart, sunlight 2 days; for Insects Suppression, % 6 DAT2: 6 days after second application; for Insects Suppression, % 13 DAT2: 13 days after second application
Description: The experiments were conducted in a greenhouse. Whiteflies were maintained on Common Poinsettia plants (Euphorbia pulcherrima) cv Prestige Red in the Greenhouse. Host plants and experimental plants were not initially exposed to pesticide treatments.
Experimental poinsettia plants were grown in 6.5″ plastic pots filled with Sunshine #4 soil mix. The plants were irrigated every day and soluble fertilizer 20-20-20 @ 200 ppm was applied twice weekly.
The poinsettia plants were placed into a whitefly infected greenhouse for 30 days to obtain uniform colonies of insect nymphs on the plants. After 30 days, the infested plants were moved from the infested greenhouse and placed outside of the greenhouse for a two-day adaptation period prior to the treatment. Whitefly nymph population was counted one day prior to the treatment using the discs method.
(§1) Two 5.47 cm^2 discs were taken from each replicate, insects were observed under a stereoscope and counted. The discs were taken from the randomly collected leaves from the mid to upper strata areas of the plant as this area is preferred by insects for eggs laying and nymphs development. Upon initiation of the experiment the whitefly population was considered uniform.
Treatments were applied two times with a 7-day interval using CO2 backpack sprayer with a single hollow cone nozzle (TVXK-3) at 40 psi. Plants were thoroughly sprayed with tested treatments and immediately exposed to direct sunlight for 2 days before returning to the greenhouse setting. For each treatment, six single plant replicates were used. After 2 days of outside sun exposure, all plants were carefully moved into the separate greenhouse and placed on a wire mesh bench in a Completely Randomized design. A second application of treatments was made 7 days after the first application using the same methodology.
The number of whitefly nymphs per disc was counted at 6 and 13 days after second foliar application (6 DAT2, 13DAT2). The Plants were evaluated for phytotoxicity at 6 days after each foliar spray.

[4] = tested on: Silverleaf whitefly (Bemesia argentifolii); test: Silverleaf whitefly live nymph count on sprayed poinsettia (Example 3); format: in vivo; conditions: for Mean number of whitefly live nymphs/sample −1 DAA: 1 day before treatments application (baseline); for Mean number of whitefly live nymphs/sample 6 DAA: 6 days after first application, sunlight 8 h after spray; for Mean number of whitefly live nymphs/sample 13 DAA: 13 days after first application (6 days after application 2); for Mean number of whitefly live nymphs/sample 20 DAA: 20 days after first application (13 days after application 2); for Mean number of whitefly live nymphs/sample 28 DAA: 28 days after application 1 (21 days after application 2)
Description: The experiments were conducted in a greenhouse. Whiteflies were maintained on Common Poinsettia plants (Euphorbia pulcherrima) in the Greenhouse. Host plants and experimental plants were not initially exposed to pesticide treatments.
Experimental poinsettia plants were grown from the plug stage in 6.5″ plastic pots filled with Sunshine #4 soil mix. The plants were irrigated every day and soluble fertilizer 20-20-20 @ 200 ppm was applied twice weekly.
The poinsettia plants were placed for 7 days to whitefly infected the greenhouse to obtain uniform colonies of insect nymphs on introduced plants. After 7 days, the plants were removed from the infested greenhouse and whitefly nymph population was counted using the discs method.
as §1, with “each plant” for “each”, “taken” for “taken from the randomly collected leaves”
Treatments were applied with CO2 backpack sprayer with a single solid cone nozzle (TG1) at 60 psi. Plants were thoroughly sprayed with tested treatments and immediately exposed to direct sunlight for 8 h before returning to the greenhouse setting. For each treatment, five single plant replicates were used. After 8 h of outside sun exposure all plants were carefully moved into the greenhouse and placed on a wire mesh bench in RCB design. A second application of treatments was made 7 days after the first application using the same methodology.
The number of whitefly nymphs per disc was counted at 1 day before treatments application (DAA), 6 days after first application (DAA), 13 days after first application (or 6 days after application 2), 20 days after first application 1 (or 13 days after application 2) and 28 days after application 1 (or 21 days after application 2).

[5] = tested on: Common Poinsettia plants (Euphorbia pulcherrima); conditions: 0=healthy plants, 10=dead plants
Description: Poinsettia plants were evaluated for phytotoxicity after treatments. Phytotoxicity on the plants was rated 0 to 10, where 0=healthy plants, 10=dead plants at 6 DAA and 13DAA. Ratings were based on visual observations for symptoms such as chlorosis, necrosis, deformation, stunting and compared to plants in the untreated control.

[6] = tested on: German cockroach (Blatella germanica); test: German cockroach nymph suppression, treatment fed in 1% sucrose solution, light or dark; format: in vivo; conditions: cockroach nymphs
Description: A small German cockroach colony (Blatella germanica) was purchased from Benzon Research (USA). Cockroach mix sex nymphs were used as model insect.
The experiments were conducted in a lab. Insectary at 25° C. in light and dark conditions. Light condition: 12 h light/12 h dark photoperiod. During the light period insects were exposed to Spectrum Physio Spec Indoor LED light 250 μmol m^−2 s^−1 Dark condition: insects were kept in complete dark. Insects were fed prior to treatments with 1% sucrose solution and were anesthetizing in the fridge for a few minutes before handling.
Ten homogenous cockroach nymphs (3-4 instar) were carefully transferred into each half pint clear glass jar abraded internally to provide surface for climbing and lined with 9 cm in diameter filter paper. The treatments were administered to cockroaches in a 1% sucrose solution positioned in 10 ml glass vials abraded externally for easy climbing insects and placed in jars. Fresh treatment solutions were replaced each 3 days. Glass jars were covered with mesh. […] Completely randomized design with 4 replications per treatment was used.
Treated insects were kept under specific conditions for 14 days and mortality count was performed at 7 and 14 days after exposure to treatments.

[7] = tested on: Citrus Mealybug (Planococcus citri Risso); test: Mealybug exposure to direct spray on plants (coleus shoots), instar mortality; format: in vivo
Description: (§2) Colonies of Citrus Mealybug (Planococcus citri Risso) were maintained on Coleus plants (Solenostemon Scutellarioides L. Codd) grown in a Greenhouse under 24±4° C. and 16 h light/8 h dark photoperiod. […] Host plants were not initially exposed to pesticide treatments.
(§3) Small crowns of coleus shoots (4-6 cm in height, 6-7 leaves) were excised from the mature healthy plant and inserted into water-filled 50 ml plastic vials.
(§4) Homogenous mealybug instars-crawlers were carefully collected from the infested coleus plants using tip-moist soft fine paintbrush into a petri dish lined with filter paper. A total of 20 mealybug instars were released on upper leaves of each coleus shoot. […] Rack was located in the Plant Growth Room at 24-25° C.
(§5) Each treatment was replicated 4 times. Water treatment was used as a Control.
(§6) Insects were examined using 10×magnifying glass. […] The number of live and dead insects were recorded. Insect mortality was assessed for up to 96 hours after treatment (HAT-hours after treatment).
(§7) Percentage of citrus mealybug mortality for each treatment was calculated and data was subjected to One-way ANOVA combine with All Pairwise Multiple Comparison Procedures using the Fisher protected LSD mean separation test, […].
Mealybug were introduced to coleus shoots. Two hours later, the shoots were sprayed with photosensitizer and placed under the light for 14 hours.

[8] = tested on: Citrus Mealybug (Planococcus citri Risso); test: Mealybug exposure to direct spray in petri dishes, instar mortality; format: in vivo; conditions: mealybug instars sprayed in petri dishes, simulated daylight (LED) 14 h
Description: as §2, §3, §4, §5, §6, §7
Mealybug instars were transferred into plastic containers lined with filter paper, sprayed and immediately exposed to light for […]. […]

Compound | Phytotoxicity % 13 DAT2 [1] [%] | Mean Insects Mortality, % 24 HAT ([2]; 24 HAT) [%] | Mean Insects Mortality, % 48 HAT ([2]; 48 HAT) [%] | Insects Suppression, % 6 DAT2 [3] [%] | Insects Suppression, % 13 DAT2 [3] [%] | Mean number of whitefly live nymphs/sample −1 DAA [4] [nymphs/sample] | Mean number of whitefly live nymphs/sample 6 DAA [4] [nymphs/sample] | Mean number of whitefly live nymphs/sample 13 DAA [4] [nymphs/sample] | Mean number of whitefly live nymphs/sample 20 DAA [4] [nymphs/sample] | Mean number of whitefly live nymphs/sample 28 DAA [4] [nymphs/sample] | Phytotoxicity (0-10) 6 DAA [5] | Phytotoxicity (0-10) 13 DAA [5] | Phytotoxicity (0-10) 20 DAA [5] | Phytotoxicity (0-10) 28 DAA [5] | other results
O=C([O-])CN(CCN(CC(=O)[O-])CC(=O)O)CC(=O)O.[Na+].[Na+] [0.1% Na2EDTA, Na2EDTA] | 0 | 6 | 20 | 36 | 31 | 93 | 53 | 69.7 | 89.9 | 44.3 | 0 | 0 | 0 | 0 | Insects Suppression %, 14 DAT, Light (12/12 h light-dark) ([6]; LED 250 μmol m^−2 s^−1, 12 h light/12 h dark): 33%; Insects Suppression %, 14 DAT, Dark ([6]; complete dark): 0%
Mg-Chlorophyllin [0.2 wt % MgChln] |  | 24 | 24 |  |  | 111.4 | 68 | 56.6 | 74.8 | 30.1 | 0 | 0 | 0 | 0 | Mean Insect Mortality, % 24 HAT ([2]; no light exposure (dark), dark exposure 24 h, 24 HAT): 5%; Mean Insect Mortality, % 48 HAT ([2]; no light exposure (dark), dark exposure 24 h, 48 HAT): 17%; Insect mortality, in words ([7]; infested plants sprayed, at 24 and 96 HAT): significant insect mortality; Insect Mortality, % 24 HAT ([7]; mealybugs on coleus shoots sprayed, light 14 h, 24 hours after treatment): 50%; Insect Mortality, % 96 HAT ([7]; mealybugs on coleus shoots sprayed, light 14 h, 96 hours after treatment): 68.8%; Insect Mortality, % 24 HAT ([8]; 24 hours after treatment): 32.8%; Insect Mortality, % 96 HAT ([8]; 96 hours after treatment): 46.3%
chlorin e6 [0.1% Ce6] | 0 |  |  | 27 | 28 |  |  |  |  |  |  |  |  |  | 
O=S(=O)([O-])c1ccc(-c2c3nc(c(-c4ccc(S(=O)(=O)[O-])cc4)c4ccc([nH]4)c(-c4ccc(S(=O)(=O)O)cc4)c4nc(c(-c5ccc(S(=O)(=O)[O-])cc5)c5ccc2[nH]5)C=C4)C=C3)cc1.[Na+].[Na+].[Na+] [0.1% TPPS-Na3, meso-tetra-(4-sulfonatophenyl) porphyrin trisodium salts] | 0 |  |  | 37 | 52 |  |  |  |  |  |  |  |  |  | 
C=CC1=C(C)c2cc3[nH]c(cc4nc(cc5[nH]c(cc1n2)c(C)c5CCC(=O)[O-])C(CCC(=O)[O-])=C4C)c(C)c3C=C.[Na+].[Na+] [0.1% PPIX, Protoporphyrin sodium salts] | 0 |  |  | 41 | 28 |  |  |  |  |  |  |  |  |  | 
